Test results published in ChEMBL document CHEMBL1201862, “PubChem BioAssay data set” (2004).
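Briefly, cells in 96-well plates were exposed to five compound concentrations for 48 h, and endpoints were estimated by linear interpolation. Abbreviation: GI50, concentration required for 50% inhibition of growth.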 The source made the active and inactive calls. Rule as the data show it: active = GI50 up to about 1.1 µM and inactive = higher.

Columns and labels:
Experiment in all cases: NCI tumour cell line growth inhibition, 48 h
UACC-62 = test system: UACC-62
HCT-116 = test system: HCT-116
XF498 = test system: XF498
RPMI-8226 = test system: RPMI-8226
NCI-H460 = test system: NCI-H460
LOX IMVI = test system: LOX IMVI
SW-620 = test system: SW-620
RXF 631 = test system: RXF 631
DMS-114 = test system: DMS-114
K562 = test system: K562
SNB-19 = test system: SNB-19
OVCAR-4 = test system: OVCAR-4
EKVX = test system: EKVX
HCC 2998 = test system: HCC 2998
SF-268 = test system: SF-268
U-251 = test system: U-251
MOLT-4 = test system: MOLT-4
KM12 = test system: KM12
HT-29 = test system: HT-29
COLO 205 = test system: COLO 205

Measured: GI50

O=C(c1ccccc1)[C@H]1Nc2ccc(Cl)cc2[C@H]2OCCC[C@@H]12
inactive: UACC-62 17.8 µM | HCT-116 16.3 µM | XF498 19.5 µM | RPMI-8226 19.3 µM | NCI-H460 18 µM | LOX IMVI 16.7 µM | SW-620 17.3 µM | RXF 631 17.9 µM | DMS-114 14.2 µM | K562 22.6 µM | SNB-19 27.6 µM | OVCAR-4 20.7 µM | EKVX 23.4 µM | HCC 2998 22.2 µM | SF-268 19 µM | U-251 17.3 µM | MOLT-4 16.8 µM | KM12 19 µM | HT-29 18.5 µM | COLO 205 21.5 µM
